Measurements reported in paper PMC6956567 (Bioorganic & medicinal chemistry letters, 2014).

Experiments:
[1] = tested on: CCI-induced cold allodynia; assay: Bennett model; format: in vivo, rat
human TRPV1 = human TRPV1 (Homo sapiens, UniProt Q8NER1); assay: FLIPR antagonism of capsaicin; format: cell-based; settings: for fold more potent than the corresponding racemate: Ki(CAP), (S)-isomer versus racemate; for antagonism of capsaicin response, in words: capsaicin 100 nM; for fold better antagonism than linear derivative 15c: Ki(CAP) versus 15c
[2] = tested on: capsaicin-induced hypothermia; assay: Inhibition of capsaicin-induced hypothermia; format: in vivo, mouse; settings: 15 min before 3 mg/kg ip capsaicin, assayed 30 min after capsaicin

Chain of human TRPV1 (Q8NER1 whole entry): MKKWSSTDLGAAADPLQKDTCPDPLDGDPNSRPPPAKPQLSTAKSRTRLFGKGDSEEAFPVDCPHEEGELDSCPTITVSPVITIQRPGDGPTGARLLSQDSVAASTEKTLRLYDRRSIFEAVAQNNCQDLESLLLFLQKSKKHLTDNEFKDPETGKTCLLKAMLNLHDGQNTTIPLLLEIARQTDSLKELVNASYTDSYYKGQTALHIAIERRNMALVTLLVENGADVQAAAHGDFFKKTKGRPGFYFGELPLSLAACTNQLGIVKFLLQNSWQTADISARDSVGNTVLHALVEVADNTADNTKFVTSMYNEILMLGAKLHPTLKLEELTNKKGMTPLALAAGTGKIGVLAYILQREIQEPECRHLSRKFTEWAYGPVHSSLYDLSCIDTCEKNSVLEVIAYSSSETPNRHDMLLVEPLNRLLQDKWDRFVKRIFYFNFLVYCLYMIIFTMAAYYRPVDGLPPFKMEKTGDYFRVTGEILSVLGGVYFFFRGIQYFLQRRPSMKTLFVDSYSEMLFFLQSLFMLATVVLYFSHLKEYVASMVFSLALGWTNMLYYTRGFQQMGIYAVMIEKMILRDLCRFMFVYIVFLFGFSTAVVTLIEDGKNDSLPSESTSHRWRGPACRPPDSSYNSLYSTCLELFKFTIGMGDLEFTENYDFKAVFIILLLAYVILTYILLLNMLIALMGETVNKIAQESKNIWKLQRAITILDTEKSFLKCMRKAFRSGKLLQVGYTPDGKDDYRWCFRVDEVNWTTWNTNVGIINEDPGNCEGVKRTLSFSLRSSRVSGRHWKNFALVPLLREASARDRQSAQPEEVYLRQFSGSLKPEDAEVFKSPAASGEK

Structure (SMILES): CC(C)C[C@H](CN)CC(=O)O [pregabalin, reference compound]
- anti-allodynic activity, max effect ([1]; at 100 mg/kg): 69%

Structure (SMILES): C[C@H](C(=O)NCc1ccc(C(F)(F)F)nc1C1=CCC(C(C)(C)C)CC1)c1ccc(NS(C)(=O)=O)c(F)c1 (stereo partly drawn) [(S)-15t]
- fold more potent than the corresponding racemate (human TRPV1): ca. 2 fold

Structure (SMILES): CC(C)=Cc1nc(C(F)(F)F)ccc1CNC(=O)C(C)c1ccc(NS(C)(=O)=O)c(F)c1 (stereo not drawn) [16a]
- antagonism of capsaicin response, in words (human TRPV1): moderate antagonistic activity

Structure (SMILES): CCC/C=C\c1nc(C(F)(F)F)ccc1CNC(=O)C(C)c1ccc(NS(C)(=O)=O)c(F)c1 (stereo not drawn) [16c]
- fold less potent than saturated derivative 15b (human TRPV1; Ki(CAP) versus 15b): 2 fold

Structure (SMILES): C[C@H](C(=O)NCc1ccc(C(F)(F)F)nc1C1CC2CCC1C2)c1ccc(NS(C)(=O)=O)c(F)c1 (stereo partly drawn) [(S)-15n]
- fold more potent than the corresponding racemate (human TRPV1): ca. 2 fold

Structure (SMILES): CC(C(=O)NCc1ccc(C(F)(F)F)nc1C1CC2CCC1C2)c1ccc(NS(C)(=O)=O)c(F)c1 (stereo not drawn) [15n]
- fold less potent than monocycle 15f (human TRPV1; Ki(CAP) versus 15f): 2.5 fold

Structure (SMILES): CCC1CCC(c2nc(C(F)(F)F)ccc2CNC(=O)C(C)c2ccc(NS(C)(=O)=O)c(F)c2)CC1 (stereo not drawn) [15h]
- fold increase in potency compared to 15f (human TRPV1; Ki(CAP) versus 15f): 2 fold

Structure (SMILES): CCC1CCC(c2nc(C(F)(F)F)ccc2CNC(=O)[C@@H](C)c2ccc(NS(C)(=O)=O)c(F)c2)CC1 (stereo partly drawn) [(S)-15h]
- fold more potent than the corresponding racemate (human TRPV1): ca. 2 fold

Structure (SMILES): C[C@H](C(=O)NCc1ccc(C(F)(F)F)nc1C1=CCC(C)(C)CC1)c1ccc(NS(C)(=O)=O)c(F)c1 [(S)-15u]
- fold more potent than the corresponding racemate (human TRPV1): ca. 2 fold

Structure (SMILES): CC(C(=O)NCc1ccc(C(F)(F)F)nc1CCC(C)(C)C)c1ccc(NS(C)(=O)=O)c(F)c1 (stereo not drawn) [15e]
- fold better antagonism than linear derivative 15c (human TRPV1): ca. 2 fold

Structure (SMILES): C[C@H](C(=O)NCc1ccc(C(F)(F)F)nc1C1CCC(C)(C)CC1)c1ccc(NS(C)(=O)=O)c(F)c1 [(S)-15l]
- fold more potent than the corresponding racemate (human TRPV1): ca. 2 fold

Structure (SMILES): C[C@H](C(=O)NCc1ccc(C(F)(F)F)nc1C1CCCCC1)c1ccc(NS(C)(=O)=O)c(F)c1 [(S)-15f]
- fold more potent than the corresponding racemate (human TRPV1): 2 fold

Structure (SMILES): CC(C)CCCc1nc(C(F)(F)F)ccc1CNC(=O)C(C)c1ccc(NS(C)(=O)=O)c(F)c1 (stereo not drawn) [15d]
- fold better antagonism than linear derivative 15c (human TRPV1): ca. 2 fold

Structure (SMILES): CC(C(=O)NCc1ccc(C(F)(F)F)nc1Br)c1ccc(NS(C)(=O)=O)c(F)c1 (stereo not drawn) [compound 9]
- antagonism of capsaicin response, in words (human TRPV1): weak antagonists

Structure (SMILES): CC(C(=O)NCc1ccc(C(F)(F)F)nc1Cl)c1ccc(NS(C)(=O)=O)c(F)c1 (stereo not drawn) [compound 8]
- antagonism of capsaicin response, in words (human TRPV1): weak antagonists

Structure (SMILES): CC1CC=C(c2nc(C(F)(F)F)ccc2CNC(=O)[C@@H](C)c2ccc(NS(C)(=O)=O)c(F)c2)CC1 (stereo partly drawn) [(S)-15p]
- fold more potent than the corresponding racemate (human TRPV1): ca. 2 fold

Structure (SMILES): CC(C(=O)NCc1ccc(C(F)(F)F)nc1C1CCCCC1)c1ccc(NS(C)(=O)=O)c(F)c1 (stereo not drawn) [15f]
- Bennett model, maximal possible effect ([1]; 10 mg/kg po): 60 MPE
- anti-allodynic activity, max effect ([1]; at 10 mg/kg po): 60%
- CAP-induced hypothermia, inhibition ([2]; 0.1 mg/kg po): 24 % inh.
- CAP-induced hypothermia, inhibition ([2]; 0.3 mg/kg po): 78 % inh.
- fold better antagonism than linear derivative 15c (human TRPV1): 2.5 fold
